Patent US10899723B2, “Heterocyclic containing cyclopropyl FXR modulators” (Hepagene Therapeutics (HK) Limited, priority 2016, dated 2021)
Counter-ions that a name gives are not always drawn.

What was measured:
FXR = molecular target: T1, FXR (Homo sapiens, UniProt Q96RI1); assay: FXR Transactivation Assay (pBIND-FXR / pGL4.35 luciferase reporter in HEK293T); format: cell-based; conditions: HEK293T cells
T1 construct: expressed in transfected cells; host or cells: HEK293T
T1 sequence (Q96RI1 1-486): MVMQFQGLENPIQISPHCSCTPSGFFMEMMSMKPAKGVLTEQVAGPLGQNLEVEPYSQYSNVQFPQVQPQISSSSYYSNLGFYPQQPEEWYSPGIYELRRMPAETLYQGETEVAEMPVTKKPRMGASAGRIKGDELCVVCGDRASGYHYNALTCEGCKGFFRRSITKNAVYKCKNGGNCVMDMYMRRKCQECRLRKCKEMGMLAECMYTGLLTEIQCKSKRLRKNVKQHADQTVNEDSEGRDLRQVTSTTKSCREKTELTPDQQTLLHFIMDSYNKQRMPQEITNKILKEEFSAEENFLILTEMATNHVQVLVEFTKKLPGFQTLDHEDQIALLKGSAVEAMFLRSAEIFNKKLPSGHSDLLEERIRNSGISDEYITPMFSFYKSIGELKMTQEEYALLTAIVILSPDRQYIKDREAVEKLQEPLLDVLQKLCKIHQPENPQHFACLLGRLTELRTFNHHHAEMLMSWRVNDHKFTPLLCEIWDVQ
Method: FXR Transactivation Assay
pGL4.35 [luc2P/9XGAL4 UAS/Hygro]
DMEM medium, high glucose
Fetal Bovine Serum (FBS, heat-inactivated)
Penicillin-Streptomycin (10000 U/ml, 100 ml)
DMEM, High Glucose, HEPES, no Phenol Red
Opti-MEM® I Reduced Serum Medium
Steady-Glo™ Luciferase Assay System
TransIT-293 Transfection Reagent
GW4064 as a positive control
(§1) • 1. Hek293T cells were plated at 1.1*10^6/ml into a 100 mm dish. • 2. Cells were transfected with 8.4 μg of pBind-FXR, 1.26 μg of the reporter vector pGL4.35 (Promega). Cells were incubated at 37° C. under 5% CO2 atmosphere. • 3. All of compounds were 3-fold serial diluted from 10 mM stock for 10 doses in DMSO. • 4. Transfer compound dilutions into 384 well assay plates using liquid workstation. • 5. Seed 25 ul HEK293T cells into 384 well assay plate (prepared step 4) at 0.6*10^5/ml. Cells were incubated at 37° C. under 5% CO2 atmosphere overnight. • 6. Add 25 ul steady-Glo™ Luciferase Assay Reagent into each well of 384-well assay plate. • 7. Record the luminescence value on Envision 2104 plate reader. • 8. Calculate EC50 by fitting % Activity values and log of compound concentrations to nonlinear regression (dose response−variable slope) with Graphpad 5.0. FXR Coactivator Assay Reagents: LanthaScreen™ TR-FRET Farnesoid X Receptor Coactivator Assay GW4064 as a positive control Process: • 1. All of compounds were 3-fold serial diluted from 10 mM stock for 10 doses in DMSO. • 2. Dilute each 100× agonist serial dilution to 2× using Complete Coregulator buffer G. • 3. Transfer 10 μl of each of the 2× agonist serial dilutions to 384 well assay plates. • 4. […] Incubate at room temperature protected from light. • 7. Read the plate at wavelengths of 520 nm and 495 nm on Envision 2104 plate reader. • 8. Calculate the TR-FRET ratio by dividing the emission signal at 520 nm by the emission signal at 495 nm. • 9. Calculate EC50 by fitting % Activity values and log of compound concentrations to nonlinear regression (dose response−variable slope) with Graphpad 5.0.

FXR-LBD = molecular target: T2, FXR-LBD (Homo sapiens, UniProt Q96RI1); assay: FXR Coactivator Assay (LanthaScreen TR-FRET); format: biochemical
T2 construct: Add 5 μl of 4×FXR-LBD to 384 well assay plates; purchased
T2 sequence (Q96RI1 262-486 limits assumed): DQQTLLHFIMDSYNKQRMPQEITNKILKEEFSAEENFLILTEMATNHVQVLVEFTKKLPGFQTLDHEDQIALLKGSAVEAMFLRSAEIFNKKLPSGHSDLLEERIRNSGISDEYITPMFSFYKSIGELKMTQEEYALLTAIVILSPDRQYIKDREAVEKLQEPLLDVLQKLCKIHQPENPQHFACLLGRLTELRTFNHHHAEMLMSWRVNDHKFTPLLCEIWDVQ
Method: as §1

COc1ccc(C(=O)O)cc1C1CC1(C#N)c1ccc(OCc2c(-c3c(Cl)cccc3Cl)noc2C2CC2)cc1Cl (stereo not shown) [VII-09]
EC50 (FXR): 101 to 400 nM

COc1cc(C(=O)O)cc2sc(C3CC3(C)c3ccc(OCc4c(-c5c(Cl)cccc5Cl)noc4C(C)C)cc3Cl)nc12 (stereo not shown) [VI-10]
EC50 (FXR-LBD): 101 to 400 nM

CC1(c2cccc(C(=O)O)c2)CC1c1ccc(OCc2c(-c3c(Cl)cncc3Cl)noc2C2CC2)cc1Cl (stereo not shown) [IV-04]
EC50 (FXR): 101 to 400 nM

CC1(c2ccnc(C(=O)O)c2)CC1c1ccc(OCc2c(-c3c(Cl)cccc3Cl)noc2C2CC2)cc1Cl (stereo not shown) [IV-07]
EC50 (FXR): 401 to 5000 nM

COc1cc(C(=O)O)cc2sc(C3CC3(C#N)c3ccc(OCc4c(-c5c(Cl)cccc5Cl)noc4C4CC4)cc3Cl)nc12 (stereo not shown) [VII-06, 2-[2-(2-Chloro-4-[[5-cyclopropyl-3-(2,6-dichlorophenyl)-1,2-oxazol-4-yl]methoxy]phenyl)-2-cyanocyclopropyl]-4-methoxy-1,3-benzothiazole-6-carboxylic Acid]
EC50 (FXR): 101 to 400 nM

Cc1cc(C(=O)O)cc2sc(C3(C)CC3c3ccc(OCc4c(-c5c(Cl)cccc5Cl)noc4C4CC4)cc3Cl)nc12 (stereo not shown) [IV-18]
EC50 (FXR-LBD): 401 to 5000 nM

CC1(c2ccc(OCc3c(-c4c(Cl)cccc4Cl)noc3C3CC3)cc2Cl)CC1c1nc2c(F)cc(C(=O)O)cc2s1 (stereo not shown) [VI-09]
EC50 (FXR): 10 to 100 nM

N#CC1(c2ccc(OCc3c(-c4c(Cl)cccc4Cl)noc3C3CC3)cc2Cl)CC1c1cncc(C(=O)O)c1 (stereo not shown) [VII-05, 5-(2-(4-((3-(2,6-Dichlorophenyl)-5-cyclopropylisoxazol-4-yl)methoxy)-2-chlorophenyl)-2-cyanocyclopropyl) pyridine-3-carboxylic Acid]
EC50 (FXR): 401 to 5000 nM

CC(C)c1onc(-c2c(Cl)cccc2Cl)c1COc1ccc(C2CC2(C)c2ccc3c(c2)c(C(=O)O)nn3C(C)C)c(Cl)c1 (stereo not shown) [IV-14]
EC50 (FXR): 401 to 5000 nM

CC1(c2nc3ccc(C(=O)O)cc3s2)CC1c1ccc(OCc2c(-c3c(Cl)cccc3Cl)noc2C2CC2)cc1Cl (stereo not shown) [IV-17]
EC50 (FXR): 101 to 400 nM

CC(C)c1onc(-c2c(Cl)cccc2Cl)c1COc1ccc(C2(C)CC2c2nc3ccc(C(=O)O)cc3s2)c(Cl)c1 (stereo not shown) [VI-11]
EC50 (FXR): 10 to 100 nM

CC1(c2cncc(C(=O)O)c2)CC1c1ccc(OCc2c(-c3ccccc3OC(F)(F)F)noc2C2CC2)cc1Cl (stereo not shown) [IV-09, 5-[2-[2-Chloro-4-([5-cyclopropyl-3-[2-(trifluoromethoxy)phenyl]-1,2-oxazol-4-yl]methoxy)phenyl]-1-methylcyclopropyl] pyridine-3-carboxylic Acid]
EC50 (FXR): 101 to 400 nM

Cc1ccc(C(=O)O)cc1C1CC1(C#N)c1ccc(OCc2c(-c3c(Cl)cccc3Cl)noc2C2CC2)cc1Cl (stereo not shown) [VII-08]
EC50 (FXR): 10 to 100 nM

CC1(c2ccc(OCc3c(-c4c(Cl)cccc4Cl)noc3C3CC3)cc2Cl)CC1c1cc(C(=O)O)ccn1 (stereo not shown) [VI-07]
EC50 (FXR): 101 to 400 nM

CC1(c2ccc(OCc3c(-c4c(Cl)cccc4Cl)noc3C3CC3)cc2Cl)CC1c1cccc(C(=O)O)c1 (stereo not shown) [VI-03]
EC50 (FXR): 10 to 100 nM

CC1(c2cncc(C(=O)O)c2)CC1c1ccc(OCc2c(-c3c(Cl)cncc3Cl)noc2C2CC2)cc1Cl (stereo not shown) [IV-08]
EC50 (FXR): 101 to 400 nM

COc1cc(C(=O)O)cc2sc(C3(C)CC3c3ccc(OCc4c(-c5c(Cl)cccc5Cl)noc4C(C)C)cc3Cl)nc12 (stereo not shown) [IV-16]
EC50 (FXR): 101 to 400 nM

Cc1cc(C(=O)O)cc(C2CC2(C#N)c2ccc(OCc3c(-c4c(Cl)cccc4Cl)noc3C3CC3)cc2Cl)c1 (stereo not shown) [VII-10]
EC50 (FXR): 10 to 100 nM

CC1(c2cncc(C(=O)NCCS(=O)(=O)O)c2)CC1c1ccc(OCc2c(-c3c(Cl)cccc3Cl)noc2C2CC2)cc1Cl (stereo not shown) [IV-13]
EC50 (FXR-LBD): 10 to 100 nM

CC1(c2cncc(C(=O)NCC(=O)O)c2)CC1c1ccc(OCc2c(-c3c(Cl)cccc3Cl)noc2C2CC2)cc1Cl (stereo not shown) [IV-12, 2-([5-[2-(2-Chloro-4-[[5-cyclopropyl-3-(2,6-dichlorophenyl)-1,2-oxazol-4-yl]methoxy]phenyl)-1-methylcyclopropyl]pyridin-3-yl] formamido) Acetic Acid]
EC50 (FXR): 401 to 5000 nM

CC(C)c1onc(-c2c(Cl)cccc2Cl)c1COc1ccc(C2CC2(CN)c2ccc(C(=O)O)cc2)c(Cl)c1 (stereo not shown) [Compound V2-01, 4-[1-(Aminomethyl)-2-(2-chloro-4-[[3-(2,6-dichlorophenyl)-5-(propan-2-yl)-1,2-oxazol-4-yl]methoxy]phenyl)cyclopropyl] benzoic Acid Hydrochloride]
EC50 (FXR-LBD): 401 to 5000 nM

CC1(c2ccc(OCc3c(-c4c(Cl)cccc4Cl)noc3C3CC3)cc2Cl)CC1c1ccnc(C(=O)O)c1 (stereo not shown) [VI-06]
EC50 (FXR): 10 to 100 nM

CC(C)n1nc(C(=O)O)cc1C1CC1(C#N)c1ccc(OCc2c(-c3c(Cl)cccc3Cl)noc2C2CC2)cc1Cl (stereo not shown) [VII-07]
EC50 (FXR): 401 to 5000 nM

CC1(c2cncc(C(=O)O)c2)CC1c1ccc(OCc2c(-c3ccccc3OC(F)F)noc2C2CC2)cc1Cl (stereo not shown) [IV-10]
EC50 (FXR): 101 to 400 nM

CC(C)c1cnn(-c2c(Cl)cccc2Cl)c1COc1ccc(C2CC2(C)c2cncc(C(=O)O)c2)c(Cl)c1 (stereo not shown) [IV-11]
EC50 (FXR): 10 to 100 nM

CC1(c2ncc(C(=O)O)s2)CC1c1ccc(OCc2c(-c3c(Cl)cccc3Cl)noc2C2CC2)cc1Cl (stereo not shown) [IV-19, 2-(2-(2-Chloro-4-((5-cyclopropyl-3-(2,6-dichlorophenyl)isoxazol-4-yl)methoxy)phenyl)-1-methylcyclopropyl) thiazole-5-carboxylic Acid]
EC50 (FXR-LBD): 101 to 400 nM

CC1(c2cncc(C(=O)O)c2)CC1c1ccc(OCc2c(-c3c(Cl)cccc3Cl)noc2C2CC2)cc1Cl (single isomer, unassigned) [IV-06-1, 5-[2-(2-Chloro-4-[[5-cyclopropyl-3-(2,6-dichlorophenyl)-1,2-oxazol-4-yl]methoxy]phenyl)-1-methylcyclopropyl] pyridine-3-carboxylic Acid]
EC50 (FXR): 101 to 400 nM

CC1(c2ccc(OCc3c(-c4c(Cl)cccc4Cl)noc3C3CC3)cc2Cl)CC1c1ncc(C(=O)O)s1 (stereo not shown) [VI-13]
EC50 (FXR): 10 to 100 nM

N#CC1(c2cccc(C(=O)O)c2)CC1c1ccc(OCc2c(-c3c(Cl)cccc3Cl)noc2C2CC2)cc1Cl (stereo not shown) [Compound V-03]
EC50 (FXR): 401 to 5000 nM

CC(C)c1onc(-c2c(Cl)cccc2Cl)c1COc1ccc(C2(C)CC2c2nc3c(F)cc(C(=O)O)cc3s2)c(Cl)c1 (stereo not shown) [VI-08]
EC50 (FXR): 10 to 100 nM

N#CC1(c2ccc(OCc3c(-c4c(Cl)cccc4Cl)noc3C3CC3)cc2Cl)CC1c1cccc(C(=O)O)c1 (single isomer, unassigned) [VII-03-2, 3-[2-(2-Chloro-4-[[5-cyclopropyl-3-(2,6-dichlorophenyl)-1,2-oxazol-4-yl]methoxy]phenyl)-2-cyanocyclopropyl] benzoic Acid]
EC50 (FXR): 10 to 100 nM

CC(C)c1onc(-c2c(Cl)cccc2Cl)c1COc1ccc(C2(C)CC2c2ncc(C(=O)O)s2)c(Cl)c1 (stereo not shown) [VI-12, 2-(2-(2-Chloro-4-((3-(2,6-dichlorophenyl)-5-isopropylisoxazol-4-yl)methoxy)phenyl)-2-methylcyclopropyl) thiazole-5-carboxylic Acid]
EC50 (FXR): 10 to 100 nM

CC1(c2cncc(C(=O)O)c2)CC1c1ccc(OCc2c(-c3c(Cl)cccc3Cl)noc2C2CC2)cc1Cl (single isomer, unassigned) [IV-06-2, 5-[2-(2-Chloro-4-[[5-cyclopropyl-3-(2,6-dichlorophenyl)-1,2-oxazol-4-yl]methoxy]phenyl)-1-methylcyclopropyl] pyridine-3-carboxylic Acid]
EC50 (FXR): 10 to 100 nM

N#CC1(c2cncc(C(=O)O)c2)CC1c1ccc(OCc2c(-c3c(Cl)cccc3Cl)noc2C2CC2)cc1Cl (stereo not shown) [Compound V-04, 5-[2-(2-Chloro-4-[[5-cyclopropyl-3-(2,6-dichlorophenyl)-1,2-oxazol-4-yl]methoxy]phenyl)-1-cyanocyclopropyl] pyridine-3-carboxylic Acid]
EC50 (FXR): 401 to 5000 nM
